These are literature values, as cited in patent US6251886A, “Methods of using temozolomide in the treatment of cancers” (priority 1999, dated 2001).

Entries after “also recorded” stand apart in the source; their conditions may differ. Read-outs that look alike come from different tables or passages of the source.

Data set [1] relates to D456-MG human glioma xenograft.
The test system of data set [2] is leptomeningeal medulloblastoma and pineoblastoma. The conditions noted are these: i.t., Phase I.
For data set [3], the system named is Mer- human MG xenograft.
For data set [4] the following is noted: clinical trials.
For data set [5], the system named is brain tumors. The settings on record: clinical trials, vs adjuvant BCNU.
For data set [6] the following is noted: common, but tolerable.
For data set [7] the following is noted: known property.
Data set [8] concerns human CNS xenografts. The conditions noted are these: s.c. in athymic nude mice.
The conditions of data set [9]: systemic temozolomide, Rhesus monkeys.
For data set [10] the following is noted: oral therapy.
Data set [11] concerns advanced melanoma. The conditions noted are these: Phase I, patients with advanced melanoma.
Data set [12] relates to advanced melanoma. The conditions noted are these: Phase II, 60 patients with advanced melanoma.
The conditions of data set [13]: systemic temozolomide, rat.
Assay in data set [14]: not given
This is another data set of the same source.

In data set [15] the test system is murine tumors. The settings on record: mouse, in vivo.
Setting [16] is: Phase I, single-dose i.v. and oral.

Take `O=NN(CCCl)C(=O)NCCCl` [BCNU, 1,3-bis(2-chloroethyl)-1-nitrosourea]: the “resistance of D456 to BCNU” value in data set [1] is given as “resistant”.
With `N[C@@H](Cc1ccc(N(CCCl)CCCl)cc1)C(=O)O` [melphalan], the activity in patients result in data set [2] was “activity has been seen in patients with leptomeningeal medulloblastoma and pineoblastoma”.
As to `Cn1nnc2c(C(N)=O)ncn2c1=O` [microcrystalline temozolomide], the “sensitivity to BCNU” value in data set [3] is given as “BCNU-sensitive”. Further, the “resistance of D456 to BCNU” value in [1] is reported as “BCNU-resistant”.
For `NC(=O)c1ncn2c(=O)n(CCCl)nnc12` [mitozolomide], the thrombocytopenia result in data set [4] was “severe and unpredictable thrombocytopenia”.
As to `CNNCc1ccc(C(=O)NC(C)C)cc1` [procarbazine], in data set [5], the “activity against brain tumors” value is “results comparable to adjuvant BCNU”.
Regarding `Cn1nnc2c(C(N)=O)ncn2c1=O` [temozolomide, 3,4-dihydro-3-methyl-4-oxoimidazo-[5,1-d]-1,2,3,4-tetrazin-8-carboximide], the “effective concentration in vitro” value was 0.1 mM. Besides, the side effect entry in data set [6] was “nausea and vomiting”. For the same compound, the “solubility (in words)” value in data set [7] is listed as “marked insolubility; also recorded: poor solubility”. For the same compound, the “activity against human CNS xenografts” value in [8] is listed as “activity of temozolomide against a series of human CNS xenografts”. In addition, the “penetration into the CSF (CSF to plasma AUC zero to infinity ratio)” value in data set [9] is reported as 29.8%. Also, in data set [10], the peak serum concentrations entry was “approximately 10 mg/L”. In addition, the clinical responses in data set [11] is given as 17%. In addition, the clinical response in [12] was 21%. Besides, the “penetration into the CSF (CSF to plasma AUC zero to infinity ratio)” value in [13] was 41% to 44. The dose-limiting toxicity result in [14] (Phase I and II, five-day regimen) is on record as “dose-limiting myelosuppression; also recorded: dose-limiting stem cell toxicity”. For the same compound, the anti-neoplastic activity result in [14] (Phase I and II, five-day regimen, including high-grade glioma) was “intriguing anti-neoplastic activity”. For the same compound, in data set [14] (setting [16]), the antineoplastic activity result is “trivial antineoplastic activity” and the dose-limiting toxicity entry is on record as “dose-limiting myelosuppression”. For the same compound, the “activity against murine tumors” value in data set [15] is “activity against a spectrum of murine tumors”.
